In patent US20100056519A1, “COMPOSITION AND METHOD FOR REDUCING PLATELET ACTIVATION AND FOR THE TREATMENT OF THROMBOTIC EVENTS” (priority 2008, published 2010):

Legend:
Format in all cases: cell-based, human
CD-40L (CD154) = assay: Unstimulated whole blood flow cytometry, CD40-ligand; details: unstimulated, Mean ± SD
Experimental: (§1) The methodology employed was conventional aggregation induced by 5 μM ADP, 1 μg/ml collagen, 10 μM TRAP, whole blood aggregation with 1 μg/ml collagen, Ultegra, and PFA-100 Analyzers, expression of 14 intact, and TRAP-stimulated major receptors by whole blood flow cytometry were utilized to assess platelet activity after preincubation with escalating concentrations of E5555 (20 ng/ml, 50 ng/ml, and 100 ng/ml). The experiments were performed in healthy volunteers, CAD patients treated with ASA, and CAD patients treated with ASA and clopidogrel combination (n=10, for each group).
(§2) An Informed Consent was obtained from all volunteers. Drug users were excluded from data analysis. The study was approved by Quorum Institutional Review Board. All subjects underwent blood sampling after at least 30 minutes of rest and two or more hours of fasting. Blood (28 ml) was drawn between 8 and 10 a.m. in order to avoid any diurnal influence and sampled from an antecubital vein using a 21-gauge butterfly needle containing 3.2% sodium citrate (1:9 volume) after having discarded the first 1.5 ml of free running blood. Four Vacutainer tubes (7.0 ml) were collected for a total of 28 ml of whole blood-citrate mixture from each study participant. Chronologically, blood samples were delivered to the core laboratory facility within 45 minutes after drawing. Then all tubes of blood-citrate mixture were pooled. One portion of pooled blood (5 ml) was kept as an internal control and pretreated with the vehicle. The remaining blood (23 ml) was used for the in vitro exposure to E5555 at concentrations of 20 ng/ml, 50 ng/ml, and 100 ng/ml. […] The platelet aggregation studies, Rapid Analyzers measures, and flow cytometry preparations were initiated within no more than 110 minutes following the blood draw, incubation with the drug, and preparation of the samples.
(§3) Formation of platelet-leukocyte aggregates was assessed by dual labeling with pan-platelet marker (CD151), and then with CD14, the macrophage receptor for endotoxin lipopolysaccharides (PharMingen, and Coulter, San Diego, Calif., USA). The tubes were then covered with aluminum foil and incubated at 37° C. for 40 minutes with gentle rotation. After incubation, samples were immediately analyzed on a Becton Dickinson FACScan flow cytometer. The instrument was set up to measure forward light scatter, and FITC fluorescence. All parameters were collected using four-decade logarithmic amplification. The data was retrieved in list mode files and then analyzed. P selectin was expressed as percent positive cells. Other antigens were expressed as log mean fluorescence intensity.

LAMP-3 (CD63) = assay: Unstimulated whole blood flow cytometry, LAMP-3; details: for LAMP-3 (CD63), Mean Fluorescence Intensity: unstimulated, Mean ± SD
Experimental: as §1, §2, §3

GPIb (CD42b) = assay: Unstimulated whole blood flow cytometry, GPIb; details: for GPIb (CD42b), Mean Fluorescence Intensity: unstimulated, Mean ± SD
Experimental: as §1, §2, §3

[1] = test system: Thrombospondin-Receptor (CD36); assay: Unstimulated whole blood flow cytometry, thrombospondin receptor; details: for Thrombospondin-Receptor (CD36), Mean Fluorescence Intensity: unstimulated, Mean ± SD
Experimental: as §1, §2, §3

WEDE15 = assay: TRAP-stimulated whole blood flow cytometry, WEDE15; details: Mean ± SD
Experimental: as §1, §2, §3
For flow cytometry (TRAP-stimulated) all of the above flow cytometry experiments were identically repeated utilizing prestimulation with 10 μmol/L TRAP for 5 minutes at 37° C. To determine statistics, a Paired Sign Test was used to define significance of differences between vehicle and E5555-treated groups. The Mann-Whitney U test was used to analyze nonparametric data. Normally distributed data were expressed as mean±standard error (m±SE), and skewed data as median (range). All P-values were two sided. All analysis was performed using the SPSS v9.0 program (SPSS Inc., Chicago, Ill.).

[2] = E5555 100 ng/ml, Patients (ASA + C)
[3] = E5555 100 ng/ml, Patients (ASA)
[4] = overall summary, stimulation not stated
[5] = E5555 20 ng/ml, Patients (ASA + C)
[6] = E5555 50 ng/ml, Patients (ASA + C)

Q: Which results are given for `Br.CCOc1cc2c(c(F)c1OCC)C(=N)N(CC(=O)c1cc(N3CCOCC3)c(OC)c(C(C)(C)C)c1)C2` [E5555, 1-(3-tert-butyl-4-methoxy-5-morpholinophenyl)-2-(5,6-diethoxy-7-fluoro-1-imino-1,3-dihydro-2H-isoindol-2-yl)ethanone hydrobromide]?
A: CD-40L (CD154), Mean Fluorescence Intensity (CD-40L (CD154); E5555 50 ng/ml, Volunteers): 5.3 ± 0.5 MFI; CD-40L (CD154), Mean Fluorescence Intensity (CD-40L (CD154); [2]): 5.3 ± 1.3 MFI; CD-40L (CD154), Mean Fluorescence Intensity (CD-40L (CD154); [3]): 5.1 ± 1.0 MFI; CD-40L (CD154), Mean Fluorescence Intensity (CD-40L (CD154); E5555 100 ng/ml, Volunteers): 5.0 ± 0.9 MFI; LAMP, effect in words (LAMP-3 (CD63); [4]): not affected; LAMP-3 (CD63), Mean Fluorescence Intensity (LAMP-3 (CD63); [5]): 7.2 ± 1.3 MFI; LAMP-3 (CD63), Mean Fluorescence Intensity (LAMP-3 (CD63); E5555 20 ng/ml, Patients (ASA)): 7.0 ± 1.6 MFI; LAMP-3 (CD63), Mean Fluorescence Intensity (LAMP-3 (CD63); E5555 20 ng/ml, Volunteers): 8.1 ± 2.0 MFI; LAMP-3 (CD63), Mean Fluorescence Intensity (LAMP-3 (CD63); [6]): 7.0 ± 1.7 MFI; LAMP-3 (CD63), Mean Fluorescence Intensity (LAMP-3 (CD63); E5555 50 ng/ml, Patients (ASA)): 7.2 ± 1.5 MFI; LAMP-3 (CD63), Mean Fluorescence Intensity (LAMP-3 (CD63); E5555 50 ng/ml, Volunteers): 8.0 ± 1.7 MFI; LAMP-3 (CD63), Mean Fluorescence Intensity (LAMP-3 (CD63); [2]): 6.9 ± 1.8 MFI; LAMP-3 (CD63), Mean Fluorescence Intensity (LAMP-3 (CD63); [3]): 6.5 ± 1.9 MFI; LAMP-3 (CD63), Mean Fluorescence Intensity (LAMP-3 (CD63); E5555 100 ng/ml, Volunteers): 7.7 ± 2.1 MFI; GPIb expression, effect in words (GPIb (CD42b); [4]): significant reduction; GPIb (CD42b), Mean Fluorescence Intensity (GPIb (CD42b); [5]): 103 ± 7 MFI; GPIb (CD42b), Mean Fluorescence Intensity (GPIb (CD42b); E5555 20 ng/ml, Patients (ASA)): 106 ± 5 MFI; GPIb (CD42b), Mean Fluorescence Intensity (GPIb (CD42b); E5555 20 ng/ml, Volunteers): 162 ± 19 MFI; GPIb (CD42b), Mean Fluorescence Intensity (GPIb (CD42b); [6]): 94 ± 12 MFI; GPIb (CD42b), Mean Fluorescence Intensity (GPIb (CD42b); E5555 50 ng/ml, Patients (ASA)): 109 ± 7 MFI; GPIb (CD42b), Mean Fluorescence Intensity (GPIb (CD42b); E5555 50 ng/ml, Volunteers): 145 ± 20 MFI; GPIb (CD42b), Mean Fluorescence Intensity (GPIb (CD42b); [2]): 100 ± 15 MFI; GPIb (CD42b), Mean Fluorescence Intensity (GPIb (CD42b); [3]): 111 ± 10 MFI; GPIb (CD42b), Mean Fluorescence Intensity (GPIb (CD42b); E5555 100 ng/ml, Volunteers): 157 ± 16 MFI; thrombospondin receptor expression, effect in words [1, 4]: significant reduction; Thrombospondin-Receptor (CD36), Mean Fluorescence Intensity [1, 5]: 6.8 ± 1.9 MFI; Thrombospondin-Receptor (CD36), Mean Fluorescence Intensity ([1]; E5555 20 ng/ml, Patients (ASA)): 7.2 ± 0.5 MFI; Thrombospondin-Receptor (CD36), Mean Fluorescence Intensity ([1]; E5555 20 ng/ml, Volunteers): 8.4 ± 1.1 MFI; Thrombospondin-Receptor (CD36), Mean Fluorescence Intensity [1, 6]: 7.0 ± 1.0 MFI; Thrombospondin-Receptor (CD36), Mean Fluorescence Intensity ([1]; E5555 50 ng/ml, Patients (ASA)): 7.0 ± 0.7 MFI; Thrombospondin-Receptor (CD36), Mean Fluorescence Intensity ([1]; E5555 50 ng/ml, Volunteers): 8.2 ± 0.8 MFI; Thrombospondin-Receptor (CD36), Mean Fluorescence Intensity [1, 2]: 7.1 ± 1.2 MFI; Thrombospondin-Receptor (CD36), Mean Fluorescence Intensity [1, 3]: 7.4 ± 0.9 MFI; Thrombospondin-Receptor (CD36), Mean Fluorescence Intensity ([1]; E5555 100 ng/ml, Volunteers): 8.4 ± 1.0 MFI; WEDE15, Mean Fluorescence Intensity (WEDE15; [5]): 33 ± 5 MFI; WEDE15, Mean Fluorescence Intensity (WEDE15; E5555 20 ng/ml, Patients (ASA)): 38 ± 6 MFI; WEDE15, Mean Fluorescence Intensity (WEDE15; E5555 20 ng/ml, Volunteers): 40 ± 7 MFI; WEDE15, Mean Fluorescence Intensity (WEDE15; [6]): 34 ± 6 MFI; WEDE15, Mean Fluorescence Intensity (WEDE15; E5555 50 ng/ml, Patients (ASA)): 39 ± 6 MFI; WEDE15, Mean Fluorescence Intensity (WEDE15; E5555 50 ng/ml, Volunteers): 40 ± 5 MFI; WEDE15, Mean Fluorescence Intensity (WEDE15; [2]): 33 ± 6 MFI; WEDE15, Mean Fluorescence Intensity (WEDE15; [3]): 40 ± 8 MFI; WEDE15, Mean Fluorescence Intensity (WEDE15; E5555 100 ng/ml, Volunteers): 40 ± 8 MFI
